Read-outs that look alike come from different tables or passages of the source.
How the values were obtained:
[1] = in vitro; conditions: human
[2] = in vivo; conditions: male, CD-1, mouse
[3] = test system: respiratory syncytial virus (RSV); test: Cytopathic effect (CPE) assay, RSV in HEp-2; format: cell-based; conditions: human respiratory syncytial virus, HEp-2 cells
[4] = test system: human coronavirus OC43 (HCoV OC43); test: Cytopathic effect (CPE) assay, HCoV OC43 in Huh7; format: cell-based; conditions: Betacoronavirus 1, OC43, Huh-7, Huh7 cells
Method: The inhibitory effects of compounds on the replication of respiratory syncytial virus (RSV), human coronavirus OC43, influenza A virus, Zika virus (Zika) were tested using cytopathic effect (CPE) assay.
Experimental cells were inoculated in 96-well cell culture plate at a certain cell density, and cultured in an incubator (5% CO2, 37° C.) overnight. Compounds and viruses were added on the second day. […] Then cell viability of each well was detected using Cell Titer-Glo or CCK-8. […] The cytotoxicity test method was the same as the corresponding antiviral test method without virus infection.
The antiviral activity and cytotoxicity of the compounds are respectively indicated by the inhibition rate (%) of compounds on virus-induced cellular viral effects and cell viability (%). Calculating formulas are as follows:
Inhibition rate (%)=(reading value of test well—average value of virus control)/(average value of cell control—average value of virus control)×100;
EC50 and CC50 value are calculated by Prism software, and the inhibition curve fitting method is “log (inhibitor) vs. response—Variable slope”.

[5] = in vitro; conditions: human; remark: listed apart in the source
[6] = test system: 2019 novel coronavirus (SARS-CoV-2); test: microbe, parasite or virus in culture; format: cell-based; conditions: Vero E6 cells, 24 h p.i.; for inhibition at 5 µM: read-out: Inhibition Rate (5 μM); for EC50: read-out: EC50
[7] = Pharmacokinetic evaluation in mice
[8] = test system: porcine epidemic diarrhea virus (PEDV); test: Anti-porcine epidemic diarrhea virus (PEDV) activity test in Vero cells, fluorescence quantitative PCR; format: cell-based; conditions: 36 h
[9] = test system: dengue fever virus (DENV); test: Dengue virus plaque reduction test in Vero cells; format: cell-based; conditions: for inhibition at 5 µM: Dengue virus, read-out: DENV (Vero) 5 μM (inhibition rate), 5 μM, plaque reduction
[10] = test system: Zika virus (Zika); test: Cytopathic effect (CPE) assay, Zika virus in Huh7; format: cell-based
[11] = biological target: RNA-dependent RNA polymerase (RdRp) of 2019 novel coronavirus (SARS-CoV-2) (Severe acute respiratory syndrome coronavirus 2 (2019-nCoV) (SARS-CoV-2), UniProt P0DTD1); test: Inhibition of RdRp of novel coronavirus, fluorescence method; format: biochemical; conditions: for inhibition of the activity of RdRp (in words): RdRp of novel coronavirus
Method: According to the method reported in the literature (Virus Genes, 2015, 50:498-504), the inhibitory activity of the compound of the invention on RNA-dependent RNA polymerase (RdRp) of 2019 novel coronavirus (SARS-CoV-2) was determined using the fluorescence method: after the solution of the novel coronavirus RdRp, substrate, compound solution, buffer solution, etc were co-incubated for 1 hour, fluorescent DNA binding dye was added. 10 minutes later, data collection was carried out and the inhibitory activities of the compounds on RdRp were determined.

[12] = Severe acute respiratory syndrome coronavirus 2, Vero C1008, 24 h, 5 μM
[13] = male, CD-1, mouse, in vivo, po, 50 mg/kg
[14] = Porcine epidemic diarrhea virus, Vero
[15] = Severe acute respiratory syndrome coronavirus 2, Vero C1008

## [2H]c1cc([C@]2(C#N)O[C@H](C([2H])([2H])O)[C@@H](O)[C@H]2O)n2ncnc(N)c12 (stereo in doubt) [Compound A11]
[1]
  CC50: > 10000 nM
[2]; po, 50 mg/kg
  half-life: 1.9 h
[3]
  EC50: 660 nM
[4]
  EC50: 1990 nM
[5]
  CC50: > 10000 nM
[6]; [12]
  inhibition at 5 µM: > 98%
[7]; [13]
  AUC(0-inf): 5750 ng·h/mL
  AUC(0-t): 5680 ng·h/mL
  Cmax: 2120 ng/mL
  Tmax: 0.7 h
[8]; [14]
  EC50: 5 nM

## [2H]C([2H])(O)[C@H]1O[C@@](C#N)(c2ccc3c(N)ncnn23)[C@H](O)[C@@H]1O [Compound A10]
[1]
  CC50: > 10000 nM
[2]; po, 50 mg/kg
  half-life: 1.3 h
[3]
  EC50: 630 nM
[4]
  EC50: 1980 nM
[5]
  CC50: > 10000 nM
[6]; [12]
  inhibition at 5 µM: 99%
[6]; [15]
  EC50: 430 nM
[7]; [13]
  AUC(0-inf): 4620 ng·h/mL
  AUC(0-t): 4550 ng·h/mL
  Cmax: 1760 ng/mL
  Tmax: 0.8 h
[8]; [14]
  EC50: 6 nM

## Nc1ncnn2c([C@]3(C4CC4)O[C@H](CO)[C@@H](O)[C@H]3O)ccc12 [Compound A28]
[9]
  inhibition at 5 µM: 6%
[8]; [14]
  EC50: 1100 nM

## CC(C)C(=O)OC[C@H]1O[C@@](C#N)(c2ccc3c(N)ncnn23)[C@H](O)[C@@H]1O [Compound A50]
[6]; 5 μM
  Inhibition Rate (5 μM): 99%
[6]; 10 μM
  Inhibition Rate (10 μM): 99%
[6]
  EC50: 230 nM
[8]
  EC50: 2 nM

## [2H]c1cc([C@]2(C#N)O[C@H](COC(=O)C(C)C)[C@@H](O)[C@H]2O)n2ncnc(N)c12 [Compound A70]
[1]
  CC50: > 10000 nM
[3]
  EC50: 580 nM
[4]
  EC50: 1900 nM
[10]; Huh-7, 5 μM, Huh7 cells
  inhibition at 5 µM: ~27%
[5]
  CC50: > 10000 nM
[6]; [12]
  inhibition at 5 µM: 99%
[8]; [14]
  EC50: 2 nM

## [2H]c1cc([C@]2(C#N)O[C@H](COC(=O)[C@@H](N)C(C)C)[C@@H](O)[C@H]2O)n2ncnc(N)c12 [Compound A72]
[1]
  CC50: > 10000 nM
[3]
  EC50: 770 nM
[6]; [12]
  inhibition at 5 µM: 99%

## [2H]C([2H])(OC(=O)C(C)C)[C@H]1O[C@@](C#N)(c2ccc3c(N)ncnn23)[C@H](O)[C@@H]1O [Compound A75]
[1]
  CC50: > 10000 nM
[3]
  EC50: 490 nM
[6]; [12]
  inhibition at 5 µM: 99%

## N#C[C@@]1(c2cc(F)c3c(N)ncnn23)O[C@H](COP(=O)(O)OP(=O)(O)OP(=O)(O)O)[C@@H](O)[C@H]1O [Compound A102]
[11]; RdRp of 2019 novel coronavirus
  IC50: 1000 to 10000 nM
[11]
  inhibition of the activity of RdRp (in words): significantly inhibit the activity of RdRp

## [2H]c1cc([C@]2(C#N)O[C@H](COP(=O)(O)OP(=O)(O)OP(=O)(O)O)[C@@H](O)[C@H]2O)n2ncnc(N)c12 [Compound A106]
[11]
  inhibition of the activity of RdRp (in words): significantly inhibit the activity of RdRp

## [2H]C([2H])(OP(=O)(O)OP(=O)(O)OP(=O)(O)O)[C@H]1O[C@@](C#N)(c2ccc3c(N)ncnn23)[C@H](O)[C@@H]1O [Compound A107]
[11]
  inhibition of the activity of RdRp (in words): significantly inhibit the activity of RdRp

## CC(C)C(=O)OC[C@H]1O[C@@](C#N)(c2ccc3c(N)ncnn23)[C@H](OC(=O)C(C)C)[C@@H]1OC(=O)C(C)C [Compound A131]
[6]; [12]
  inhibition at 5 µM: > 98%
[8]; [14]
  EC50: < 100 nM

## [2H]c1cc([C@]2(C#N)O[C@H](CO)[C@@H](OC(=O)C(C)C)[C@H]2O)n2ncnc(N)c12 [Compound A144]
[1]
  CC50: > 10000 nM
[3]
  EC50: 470 nM
[4]
  EC50: 1880 nM
[5]
  CC50: > 10000 nM
[6]; [12]
  inhibition at 5 µM: 99%
[6]; [15]
  EC50: 240 nM
[8]; [14]
  EC50: < 100 nM

## [2H]c1cc([C@]2(C#N)O[C@H](C([2H])([2H])O)[C@@H](OC(=O)C(C)C)[C@H]2O)n2ncnc(N)c12 [Compound A173]
[1]
  CC50: > 10000 nM
[3]
  EC50: 460 nM

## [2H]c1cc([C@]2(C#N)O[C@H](C([2H])([2H])OP(=O)(O)OP(=O)(O)OP(=O)(O)O)[C@@H](O)[C@H]2O)n2ncnc(N)c12 [Compound A198]
[11]
  inhibition of the activity of RdRp (in words): significantly inhibit the activity of RdRp

## [2H]c1cc([C@]2(C#N)O[C@H](CO)[C@@H](OC(=O)[C@@H](N)C(C)C)[C@H]2O)n2ncnc(N)c12 [Compound A213]
[1]
  CC50: > 10000 nM
[3]
  EC50: 760 nM
[4]
  EC50: 1970 nM
[5]
  CC50: > 10000 nM
[6]; [12]
  inhibition at 5 µM: 99%
[6]; [15]
  EC50: 100 nM

## N#C[C@@]1(c2ccc3c(N)ncnn23)O[C@H](CO)[C@@H](O)[C@H]1O [Compound A216]
[9]
  inhibition at 5 µM: 24%
[8]
  EC50: 1920 nM

## CO[C@@H]1[C@H](O)[C@@H](CO)O[C@@]1(C#N)c1ccc2c(N)ncnn12 [Compound A221]
[9]
  inhibition at 5 µM: 51%
[8]; [14]
  EC50: 1350 nM

## N#C[C@@]1(c2ccc3c(N)ncnn23)O[C@H](CO)[C@@H](O)[C@H]1O [GS-441524, reference compound]
[1]
  CC50: > 10000 nM
[2]; iv, 25 mg/kg
  half-life: 1 h
[2]; po, 50 mg/kg
  half-life: 1.2 h
[3]
  EC50: 730 nM
[4]
  EC50: 1880 nM
[10]; Huh-7, Huh7 cells, CPE
  EC50: 15000 nM
[5]
  CC50: > 10000 nM
[6]; [12]
  inhibition at 5 µM: 99%
[6]; [15]
  EC50: 480 nM
[7]; male, CD-1, mouse, in vivo, iv, 25 mg/kg
  AUC(0-inf): 14600 ng·h/mL
[7]; [13]
  AUC(0-inf): 4620 ng·h/mL
[7]; mice, p.o. 50 mg/kg, plasma
  Tmax: 0.8 h
[8]
  EC50: 26 nM

## CCC(CC)COC(=O)[C@H](C)N[P@](=O)(OC[C@H]1O[C@@](C#N)(c2ccc3c(N)ncnn23)[C@H](O)[C@@H]1O)Oc1ccccc1 [Remdesivir, reference compound]
[4]
  EC50: 21 nM
[9]
  inhibition at 5 µM: 100%
[5]
  CC50: 25700 nM
[6]; [12]
  inhibition at 5 µM: 65%
[6]; Severe acute respiratory syndrome coronavirus 2, Vero C1008, 24 h, 10 μM, read-out: Inhibition Rate (10 μM)
  inhibition at 10 µM: 99%
[6]; [15]
  EC50: 2000 nM

## NC(=O)c1ncn([C@@H]2O[C@H](CO)[C@@H](O)[C@H]2O)n1 [Ribavirin, reference compound]
[9]; column head 5 μM, no % printed
  DENV (Vero) value printed without unit: 17.4

Reference: patent US20240140975A1, “ANTIVIRAL APPLICATION OF NUCLEOSIDE ANALOG OR COMBINATION FORMULATION CONTAINING NUCLEOSIDE ANALOG” (priority 2020, published 2024)
